Test results taken from PubChem BioAssay AID248 (DTP/NCI, 2004).
Several values for one entry are separate records, joined by “and”; a condition that tells them apart may be missing. Equal entries are not always repeated. Inconclusive results and toxic doses are left out. Rule as the data show it: active = T/C of 150% or more; inactive = T/C below 125%.

System: L1210 leukemia ip in BDF1 mice, survival T/C
Assay: NCI In Vivo Anticancer Drug Screen. Data for tumor model L1210 Leukemia (intraperitoneal) in B6D2F1 (BDF1) mice
Conditions: higher = longer survival
Summary of the method: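 Tumor was transplanted into mice, which were then dosed with test compound or vehicle alone. Survival was recorded for each group, and the treated figure was expressed relative to the control figure.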

[1] = endpoint: mean survival time, dose: 100.0 mg/kg/injection, schedule: Q04DX003 (ip), vehicle: saline with Tween-80
[2] = endpoint: mean survival time, dose: 200.0 mg/kg/injection, schedule: Q04DX003 (ip), vehicle: saline with Tween-80
[3] = endpoint: mean survival time, dose: 400.0 mg/kg/injection, schedule: Q04DX003 (ip), vehicle: saline with Tween-80
[4] = endpoint: mean survival time, dose: 100.0 mg/kg/injection, schedule: Q04DX002 (ip), vehicle: Klucel (hydroxypropylcellulose) (HPC)
[5] = endpoint: mean survival time, dose: 200.0 mg/kg/injection, schedule: Q04DX002 (ip), vehicle: Klucel (hydroxypropylcellulose) (HPC)

Measured: T/C

COC(=O)C[C@](O)(CCC(C)(C)O)C(=O)O[C@@H]1C(OC)=C[C@]23CCCN2CCc2cc4c(cc2[C@H]13)OCO4
inactive: endpoint: mean survival time, dose: 0.13 mg/kg/injection, schedule: Q#A X018 (ip), vehicle: saline 116 % of control | endpoint: mean survival time, dose: 0.25 mg/kg/injection, schedule: Q01DX009 (ip), vehicle: saline 104 % of control and 117 % of control and 124 % of control | endpoint: mean survival time, dose: 0.25 mg/kg/injection, schedule: Q01DX009 (ip), vehicle: water 118 % of control | endpoint: mean survival time, dose: 0.25 mg/kg/injection, schedule: Q03HX008 (ip), vehicle: saline 109 % of control | endpoint: mean survival time, dose: 0.25 mg/kg/injection, schedule: Q03HX016 (ip), vehicle: saline 113 % of control | endpoint: mean survival time, dose: 0.25 mg/kg/injection, schedule: Q03HX024 (ip), vehicle: saline 118 % of control | endpoint: mean survival time, dose: 0.25 mg/kg/injection, schedule: Q#A X018 (ip), vehicle: saline 114 % of control | endpoint: mean survival time, dose: 0.5 mg/kg/injection, schedule: Q01DX009 (oral), vehicle: saline 105 % of control | endpoint: mean survival time, dose: 0.5 mg/kg/injection, schedule: Q01DX009 (sc), vehicle: saline 110 % of control | endpoint: mean survival time, dose: 0.5 mg/kg/injection, schedule: Q03HX008 (ip), vehicle: saline 116 % of control | endpoint: mean survival time, dose: 0.5 mg/kg/injection, schedule: Q03HX016 (ip), vehicle: saline 107 % of control | endpoint: mean survival time, dose: 0.5 mg/kg/injection, schedule: Q03HX024 (ip), vehicle: saline 119 % of control | endpoint: mean survival time, dose: 0.5 mg/kg/injection, schedule: Q#A X018 (ip), vehicle: saline 122 % of control | endpoint: mean survival time, dose: 1.0 mg/kg/injection, schedule: Q01DX009 (oral), vehicle: saline 111 % of control | endpoint: mean survival time, dose: 1.0 mg/kg/injection, schedule: Q01DX009 (sc), vehicle: saline 121 % of control | endpoint: mean survival time, dose: 1.0 mg/kg/injection, schedule: Q03HX008 (ip), vehicle: saline 124 % of control | endpoint: mean survival time, dose: 2.0 mg/kg/injection, schedule: Q01DX001 (ip), vehicle: saline 113 % of control | endpoint: mean survival time, dose: 2.0 mg/kg/injection, schedule: Q01DX009 (oral), vehicle: saline 112 % of control | endpoint: mean survival time, dose: 2.0 mg/kg/injection, schedule: Q04DX003 (ip), vehicle: saline 105 % of control | endpoint: mean survival time, dose: 2.0 mg/kg/injection, schedule: Q08DX002 (ip), vehicle: saline 101 % of control | endpoint: mean survival time, dose: 2.0 mg/kg/injection, schedule: Q#A X018 (ip), vehicle: saline 113 % of control | endpoint: mean survival time, dose: 4.0 mg/kg/injection, schedule: Q01DX001 (ip), vehicle: saline 110 % of control | endpoint: mean survival time, dose: 4.0 mg/kg/injection, schedule: Q01DX009 (ip), vehicle: saline 119 % of control and 124 % of control | endpoint: mean survival time, dose: 4.0 mg/kg/injection, schedule: Q01DX009 (oral), vehicle: saline 98 % of control | endpoint: mean survival time, dose: 4.0 mg/kg/injection, schedule: Q01DX009 (sc), vehicle: saline 92 % of control | endpoint: mean survival time, dose: 4.0 mg/kg/injection, schedule: Q04DX003 (ip), vehicle: saline 123 % of control | endpoint: mean survival time, dose: 4.0 mg/kg/injection, schedule: Q08DX002 (ip), vehicle: saline 107 % of control | endpoint: mean survival time, dose: 8.0 mg/kg/injection, schedule: Q01DX001 (ip), vehicle: saline 117 % of control | endpoint: mean survival time, dose: 8.0 mg/kg/injection, schedule: Q04DX003 (ip), vehicle: saline 87 % of control | endpoint: mean survival time, dose: 8.0 mg/kg/injection, schedule: Q08DX002 (ip), vehicle: saline 107 % of control | endpoint: mean survival time, dose: 16.0 mg/kg/injection, schedule: Q08DX002 (ip), vehicle: saline 98 % of control | endpoint: median survival time, dose: 0.25 mg/kg/injection, schedule: Q01DX009 (ip), vehicle: saline 100 % of control and 101 % of control | endpoint: median survival time, dose: 0.5 mg/kg/injection, schedule: Q01DX009 (ip), vehicle: saline 105 % of control and 107 % of control | endpoint: median survival time, dose: 1.0 mg/kg/injection, schedule: Q01DX009 (ip), vehicle: saline 110 % of control and 115 % of control

O=C(CNC(=O)C1CCCN1Sc1ccc([N+](=O)[O-])cc1[N+](=O)[O-])NCC(=O)OCc1ccccc1 (configuration not stated)
inactive: endpoint: mean survival time, dose: 100.0 mg/kg/injection, schedule: Q01DX001 (ip), vehicle: Klucel (hydroxypropylcellulose) (HPC) 98 % of control | endpoint: mean survival time, dose: 200.0 mg/kg/injection, schedule: Q01DX001 (ip), vehicle: Klucel (hydroxypropylcellulose) (HPC) 103 % of control | endpoint: mean survival time, dose: 400.0 mg/kg/injection, schedule: Q01DX001 (ip), vehicle: Klucel (hydroxypropylcellulose) (HPC) 98 % of control

CCCCOC(=O)CCC(C)=O
inactive: endpoint: mean survival time, dose: 100.0 mg/kg/injection, schedule: Q01DX009 (ip), vehicle: saline with Tween-80 92 % of control | [1] 109 % of control | endpoint: mean survival time, dose: 200.0 mg/kg/injection, schedule: Q01DX009 (ip), vehicle: saline with Tween-80 100 % of control | [2] 113 % of control | endpoint: mean survival time, dose: 400.0 mg/kg/injection, schedule: Q01DX009 (ip), vehicle: saline with Tween-80 96 % of control | [3] 112 % of control

O=[N+]([O-])c1ccc2c(c1)-c1ccccc1C2Br (configuration not stated)
inactive: endpoint: mean survival time, dose: 100.0 mg/kg/injection, schedule: Q01DX005 (ip), vehicle: Klucel (hydroxypropylcellulose) (HPC) 88 % of control | [4] 117 % of control | [5] 101 % of control | endpoint: mean survival time, dose: 400.0 mg/kg/injection, schedule: Q01DX005 (ip), vehicle: Klucel (hydroxypropylcellulose) (HPC) 102 % of control | endpoint: mean survival time, dose: 400.0 mg/kg/injection, schedule: Q04DX002 (ip), vehicle: Klucel (hydroxypropylcellulose) (HPC) 90 % of control

COC(=O)C1C2C=CC(C3CCC23)C1C(=O)OC (configuration not stated)
inactive: [1] 92 % of control | [2] 91 % of control | [3] 94 % of control

OCC(O)C(O)C(O)C(Sc1ccccc1)Sc1ccccc1 (configuration not stated)
inactive: endpoint: mean survival time, dose: 75.0 mg/kg/injection, schedule: Q01DX001 (ip), vehicle: saline 97 % of control | endpoint: mean survival time, dose: 100.0 mg/kg/injection, schedule: Q01DX001 (ip), vehicle: other 95 % of control | endpoint: mean survival time, dose: 150.0 mg/kg/injection, schedule: Q01DX001 (ip), vehicle: saline 102 % of control | endpoint: mean survival time, dose: 200.0 mg/kg/injection, schedule: Q01DX001 (ip), vehicle: other 101 % of control | endpoint: mean survival time, dose: 300.0 mg/kg/injection, schedule: Q01DX001 (ip), vehicle: saline 102 % of control | endpoint: mean survival time, dose: 400.0 mg/kg/injection, schedule: Q01DX001 (ip), vehicle: other 97 % of control

Cc1c2cccc(Sc3ccccc3)c2c2c3c(cccc13)[S+](c1ccccc1)C2 (configuration not stated)
inactive: endpoint: mean survival time, dose: 1.56 mg/kg/injection, schedule: Q01DX009 (ip), vehicle: saline 104 % of control | endpoint: mean survival time, dose: 3.12 mg/kg/injection, schedule: Q01DX009 (ip), vehicle: saline 101 % of control | endpoint: mean survival time, dose: 6.25 mg/kg/injection, schedule: Q01DX009 (ip), vehicle: saline 105 % of control | endpoint: mean survival time, dose: 12.5 mg/kg/injection, schedule: Q01DX001 (ip), vehicle: saline with Tween-80 97 % of control | endpoint: mean survival time, dose: 12.5 mg/kg/injection, schedule: Q01DX001 (ip), vehicle: saline 100 % of control | endpoint: mean survival time, dose: 12.5 mg/kg/injection, schedule: Q01DX009 (ip), vehicle: saline 91 % of control | endpoint: mean survival time, dose: 25.0 mg/kg/injection, schedule: Q01DX001 (ip), vehicle: saline 93 % of control | endpoint: mean survival time, dose: 50.0 mg/kg/injection, schedule: Q01DX001 (ip), vehicle: saline with Tween-80 95 % of control | endpoint: mean survival time, dose: 50.0 mg/kg/injection, schedule: Q01DX001 (ip), vehicle: saline 86 % of control

CC(C)(C)Nc1ccc(F)cc1
inactive: [4] 106 % of control | [5] 95 % of control

Nc1nc(N)c(-c2ccc(Cl)cc2)c(CCc2cccc(NC(=O)c3cccc(S(=O)(=O)F)c3)c2)n1
inactive: endpoint: mean survival time, dose: 100.0 mg/kg/injection, schedule: Q01DX001 (ip), vehicle: saline with Tween-80 93 % of control | endpoint: mean survival time, dose: 200.0 mg/kg/injection, schedule: Q01DX001 (ip), vehicle: saline with Tween-80 95 % of control | endpoint: mean survival time, dose: 400.0 mg/kg/injection, schedule: Q01DX001 (ip), vehicle: saline with Tween-80 97 % of control

CC(=O)Nc1cc(C)no1
inactive: endpoint: mean survival time, dose: 100.0 mg/kg/injection, schedule: Q01DX009 (ip), vehicle: saline 103 % of control | endpoint: mean survival time, dose: 100.0 mg/kg/injection, schedule: Q04DX003 (ip), vehicle: Klucel (hydroxypropylcellulose) (HPC) 102 % of control | endpoint: mean survival time, dose: 200.0 mg/kg/injection, schedule: Q01DX009 (ip), vehicle: saline 100 % of control | endpoint: mean survival time, dose: 200.0 mg/kg/injection, schedule: Q04DX003 (ip), vehicle: Klucel (hydroxypropylcellulose) (HPC) 96 % of control | endpoint: mean survival time, dose: 400.0 mg/kg/injection, schedule: Q01DX009 (ip), vehicle: saline 101 % of control | endpoint: mean survival time, dose: 400.0 mg/kg/injection, schedule: Q04DX003 (ip), vehicle: Klucel (hydroxypropylcellulose) (HPC) 92 % of control
